Drawing on PMC5114424, “The Role of Folate Transport in Antifolate Drug Action in Trypanosoma brucei” (The Journal of Biological Chemistry, 2016), this text covers IC50, Km and Ki for six molecules.

What all share (format): cell-based, Trypanosoma brucei brucei
The test system of test [1] is T1, FT1–3 (TbFT1–3).
T1 construct: native transporters in intact bloodstream-form trypanosomes; 12 predicted transmembrane helices; uptake assigned by RNAi knockdown of all three
Description: inhibition of [3H]folate uptake, whole cells. The note with it: 2.0 μM folate ([S] ≅ Km); pH 7.3; read-out: IC50 against folate. The source says:
inhibition of [3H]folate uptake, whole cells on FT1–3 (TbFT1–3)

Test [2] deals with T1, FT1–3 (TbFT1–3). In words: [3H]folic acid uptake, whole cells. The note with it: transport, 23 °C, pH 7.3; labelled compound. From the text:
[3H]folic acid uptake, whole cells on FT1–3 (TbFT1–3) | Uptake rates for folate obeyed simple Michaelis-Menten kinetics (Fig. 2D) yielding a Km of […]

Test [3] has as its system T1, FT1–3 (TbFT1–3). Description: inhibition of [3H]MTX uptake, whole cells. The conditions noted are these: 13 μM MTX ([S] ≅ Km); pH 7.3; read-out: IC50 against MTX. From the text:
inhibition of [3H]MTX uptake, whole cells on FT1–3 (TbFT1–3)

Test [4] deals with T1, FT1–3 (TbFT1–3). In words: inhibition of [3H]MTX uptake, whole cells, Lineweaver-Burk / global fit. The conditions noted are these: competitive with MTX; folate 0, 0.5, 1 μM; pH 7.3.
The test system of test [5] is T1, FT1–3 (TbFT1–3). In words: inhibition of [3H]folate uptake, whole cells, Lineweaver-Burk / global fit. The note with it: competitive with folate; MTX 0, 0.5, 1 μM; pH 7.3.
The subject of test [6] is T1, FT1–3 (TbFT1–3). In words: [3H]MTX uptake, whole cells. The conditions noted are these: transport, 23 °C, pH 7.3; labelled compound.

On to `CN1c2c(nc(N)[nH]c2=O)NC[C@@H]1CNc1ccc(C(=O)N[C@@H](CCC(=O)O)C(=O)O)cc1` [5-methyl-THF], for which the IC50 in the test on FT1–3 (TbFT1–3) [1] turned out to be 6300 ± 1000 nM.

`Nc1nc2ncc(CNc3ccc(C(=O)N[C@@H](CCC(=O)O)C(=O)O)cc3)nc2c(=O)[nH]1` [folate]: the Km in the test on FT1–3 (TbFT1–3) [2] stood at 2.04 ± 0.53 µM. The IC50 in the test on FT1–3 (TbFT1–3) [3] was 1900 ± 400 nM. For the same molecule, the Ki with FT1–3 (TbFT1–3) [4] worked out at 940 ± 210 nM.

For the molecule `CN(Cc1cnc2nc(N)nc(N)c2n1)c1ccc(C(=O)N[C@@H](CCC(=O)O)C(=O)O)cc1` [methotrexate], the affinity in the test with FT1–3 (TbFT1–3) [5], expressed as Ki, was 480 ± 70 nM. In addition, the IC50 in the test with FT1–3 (TbFT1–3) [1] was determined as 3400 ± 400 nM. In the test on FT1–3 (TbFT1–3) [6], the Km worked out at 18.4 ± 2.2 µM.

In the case of `Nc1ccc(C(=O)N[C@@H](CCC(=O)O)C(=O)O)cc1` [pABA-Glu], the IC50 in the test with FT1–3 (TbFT1–3) [1] was 30800 ± 3700 nM.

In the case of `Nc1nc(=O)c2c(CCc3ccc(C(=O)N[C@@H](CCC(=O)O)C(=O)O)cc3)c[nH]c2[nH]1` [pemetrexed], in the test on FT1–3 (TbFT1–3) [1], the IC50 came to 3200 ± 300 nM.

In the case of `Cc1nc2ccc(CN(C)c3ccc(C(=O)N[C@@H](CCC(=O)O)C(=O)O)s3)cc2c(=O)[nH]1` [raltitrexed], the half-inhibitory concentration (IC50) in the test on FT1–3 (TbFT1–3) [1] worked out at 1800 ± 400 nM.
